{"source": "patent EP1655608A1", "about": "“CFTR as a component of an autophagy signaling pathway, applications thereof to autophagic diseases, and determination of cystic fibrosis as an autophagic disease” (priority 2004, dated 2006)", "key": {"Sertoli 42GPA9 cells": {"tested_on": "Sertoli 42GPA9 cells", "test": "Autophagic vacuolation of Sertoli cells (light, electron and confocal microscopy)", "type": "cell-based, mouse", "conditions": "for effect on Lindane-induced vacuolation: pretreatment 90 min before Lindane 50 µM, 3 MA 30 mM, BafA1 100 nM, NPPB 25 µM; for effect on Lindane-preformed vacuoles: added after vacuole formation; for induction of vacuolation / autophagy by the chemical alone: Lindane 50 µM, DDT 1.8 µM, Bϕ 90 µM, PCP 15 µM, SB203580 10 µM, NH4Cl 5 mM", "description": "Autophagy was induced either by starvation or by treatment with Lindane under nutrient-rich condition.\n(§1) When bafilomycin A1 (BafA1, V-ATPase-specific inhibitor, 100 nM, Sigma); Park Davis Inhibitor PD98059 (MEK1-specific inhibitor, 10 µM, Cell Signaling), H89 (PKA inhibitor, 5 µM, Calbiochem), 3-Methyladenine (3 MA, autophagy-specific inhibitor, 10-30 mM, Sigma) or NPPB [5-nitro-2-(3-phenylpropylamino) benzoic acid, Cl^- channel blocker, 25 µM, Sigma] was used, it was added to the starvation medium for 90 min, prior to Lindane addition or nutrient deprivation.\nThe ultrastructural changes caused by Lindane or starvation in Sertoli and renal cells were analysed by transmission electron microscopy, as previously described (57). […] Cell pellets were then rinsed in cacodylate buffer, postfixed in 1% OsO4 for 1 h at 4°C, dehydrated through graded ethanol washes, and embedded in epoxy resin. Oriented […] sections were obtained with diamond knives, and representative areas were chosen for ultra-thin sectioning. […] 30-50 micrographs were taken randomly from each sample at primary magnification × 10,000.\nSertoli cells seeded on glass coverslips were transiently transfected with EGFP-Rab7 or MEK1^+-HA expression plasmids using Fugene 6 reagent (Roche), washed and allowed to recover overnight before addition of Lindane (50 µM). […] To determine the pH of the Lindane-induced vacuoles, living cells were stained with acridine-orange (5 µg/ml, Sigma), a membrane-permeable weak base whose fluorescence shifts from green at neutral pH to red in acidic compartments (59). 10 min later, cells were washed and directly observed under a confocal microscope."}, "CFTR^-/- cells": {"tested_on": "CFTR^-/- cells", "test": "Starvation-induced autophagic death of CFTR-/- renal cells", "type": "cell-based, mouse", "conditions": "nutrient-free medium", "description": "(§2) For nutrient deprivation, cells were washed with DMEM and first starved in minimal medium lacking serum for 90 min. Cells were then washed again with PBS and deprived for up to 16 h in nutrient-free medium lacking amino acids, vitamins, and serum (HBSS, 0.1% BSA, 20 mM HEPES, Sigma #H8264). As controls, cells were incubated in this nutrient-free medium supplemented with a mixture of non essential amino acids (0.1 mM, GIBCO, #11140-035)."}, "p42^ERK2 and p44^ERK1": {"tested_on": "p42^ERK2 and p44^ERK1", "test": "ERK activation by anti-phospho-ERK Western blotting of cell lysates", "type": "cell-based, mouse", "conditions": "for ERK activation in Sertoli cells: Lindane 50 µM, DDT 1.8 µM, Bϕ 90 µM, PCP 15 µM; for effect on Lindane-induced ERK activation: pretreatment, PD98059 10 µM, NPPB 25 µM, 90 min", "excerpt": "(§3) After stripping, equal loadings of proteins were verified by reprobing the blots with anti-ERK1 (Santa Cruz Biotechnology)."}, "Sertoli cell": {"tested_on": "Sertoli cell", "conditions": "reported, ref (84); cited from earlier work"}, "PKA": {"tested_on": "PKA", "test": "CREB phosphorylation as readout of PKA activity", "type": "cell-based", "conditions": "H89", "excerpt": "The emerging issue is therefore how Lindane could activate CFTR Cl^- currents. One possibility would be that Lindane directly activates CFTR, but this appears unlikely because it required minutes instead of seconds to increase Cl^- conductance. […] To further explore this hypothesis, we tested the effect of Lindane on the renal proximal cell line (PCT1). […] Of particular interest, we provide several lines of evidence that the CFTR Δex10 channels remained functional in response to Lindane in PCT cells. […] These finding provide the first evidence that an agonist, e.g. Lindane, could activate CFTR Cl- current independently of PKA, raising the promise for new strategies using Lindane to restore Cl-conductance in cystic fibrosis patients with CFTR variants on PKA sites."}, "CFTR Cl^- channels": {"target": "CFTR Cl^- channels (Homo sapiens, UniProt P13569)", "sequence (P13569 whole entry)": "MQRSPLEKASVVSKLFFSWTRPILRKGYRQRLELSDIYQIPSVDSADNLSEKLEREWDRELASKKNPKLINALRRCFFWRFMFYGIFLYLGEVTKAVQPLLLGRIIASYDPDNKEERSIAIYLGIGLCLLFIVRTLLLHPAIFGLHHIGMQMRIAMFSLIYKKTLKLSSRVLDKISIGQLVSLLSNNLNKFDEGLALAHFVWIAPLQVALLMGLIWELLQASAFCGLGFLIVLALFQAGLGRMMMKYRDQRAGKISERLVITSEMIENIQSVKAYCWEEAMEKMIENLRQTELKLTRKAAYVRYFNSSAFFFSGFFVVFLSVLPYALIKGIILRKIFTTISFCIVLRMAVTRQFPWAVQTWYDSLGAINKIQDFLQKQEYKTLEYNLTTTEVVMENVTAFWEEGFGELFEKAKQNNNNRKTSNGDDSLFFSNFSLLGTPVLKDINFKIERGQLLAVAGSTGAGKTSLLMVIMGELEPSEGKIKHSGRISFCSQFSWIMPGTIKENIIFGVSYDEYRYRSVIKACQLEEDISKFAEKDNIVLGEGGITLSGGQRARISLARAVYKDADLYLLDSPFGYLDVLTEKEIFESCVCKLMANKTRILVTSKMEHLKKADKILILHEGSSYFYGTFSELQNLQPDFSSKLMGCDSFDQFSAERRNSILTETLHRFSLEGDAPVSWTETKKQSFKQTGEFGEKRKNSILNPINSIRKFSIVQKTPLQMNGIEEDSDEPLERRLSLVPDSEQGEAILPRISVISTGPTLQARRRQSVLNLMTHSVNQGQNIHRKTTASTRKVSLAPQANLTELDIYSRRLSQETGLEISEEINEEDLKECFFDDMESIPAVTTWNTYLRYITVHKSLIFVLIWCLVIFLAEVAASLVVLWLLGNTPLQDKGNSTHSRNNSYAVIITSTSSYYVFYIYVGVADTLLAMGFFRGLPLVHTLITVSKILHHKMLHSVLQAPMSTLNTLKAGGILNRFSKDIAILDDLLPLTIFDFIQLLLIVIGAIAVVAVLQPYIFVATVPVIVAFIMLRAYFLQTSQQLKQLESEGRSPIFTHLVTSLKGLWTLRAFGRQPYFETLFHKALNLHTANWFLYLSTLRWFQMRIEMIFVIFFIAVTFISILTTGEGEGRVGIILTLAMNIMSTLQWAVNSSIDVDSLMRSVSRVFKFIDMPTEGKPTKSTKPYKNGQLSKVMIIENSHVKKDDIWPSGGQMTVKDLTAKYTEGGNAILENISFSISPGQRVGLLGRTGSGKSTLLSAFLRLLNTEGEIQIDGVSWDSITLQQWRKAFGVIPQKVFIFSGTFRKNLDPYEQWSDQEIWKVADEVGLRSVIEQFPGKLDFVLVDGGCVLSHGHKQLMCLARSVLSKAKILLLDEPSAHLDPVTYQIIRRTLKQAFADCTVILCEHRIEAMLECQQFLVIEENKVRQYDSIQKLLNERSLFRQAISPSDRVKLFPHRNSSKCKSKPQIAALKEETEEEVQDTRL", "conditions": "NPPB 0.1 mM, glibenclamide 0.1 mM, external DIDS 1 mM; review (41); cited from earlier work"}, "CFTR^+/+ cells": {"tested_on": "CFTR^+/+ cells", "test": "Starvation-induced autophagic death of CFTR+/+ renal cells", "type": "cell-based, mouse", "conditions": "16 hours nutrient deprivation", "description": "as §2, §1"}, "CFTR Cl^- channel": {"target": "CFTR Cl^- channel (Mus musculus, UniProt P26361)", "sequence (P26361 whole entry)": "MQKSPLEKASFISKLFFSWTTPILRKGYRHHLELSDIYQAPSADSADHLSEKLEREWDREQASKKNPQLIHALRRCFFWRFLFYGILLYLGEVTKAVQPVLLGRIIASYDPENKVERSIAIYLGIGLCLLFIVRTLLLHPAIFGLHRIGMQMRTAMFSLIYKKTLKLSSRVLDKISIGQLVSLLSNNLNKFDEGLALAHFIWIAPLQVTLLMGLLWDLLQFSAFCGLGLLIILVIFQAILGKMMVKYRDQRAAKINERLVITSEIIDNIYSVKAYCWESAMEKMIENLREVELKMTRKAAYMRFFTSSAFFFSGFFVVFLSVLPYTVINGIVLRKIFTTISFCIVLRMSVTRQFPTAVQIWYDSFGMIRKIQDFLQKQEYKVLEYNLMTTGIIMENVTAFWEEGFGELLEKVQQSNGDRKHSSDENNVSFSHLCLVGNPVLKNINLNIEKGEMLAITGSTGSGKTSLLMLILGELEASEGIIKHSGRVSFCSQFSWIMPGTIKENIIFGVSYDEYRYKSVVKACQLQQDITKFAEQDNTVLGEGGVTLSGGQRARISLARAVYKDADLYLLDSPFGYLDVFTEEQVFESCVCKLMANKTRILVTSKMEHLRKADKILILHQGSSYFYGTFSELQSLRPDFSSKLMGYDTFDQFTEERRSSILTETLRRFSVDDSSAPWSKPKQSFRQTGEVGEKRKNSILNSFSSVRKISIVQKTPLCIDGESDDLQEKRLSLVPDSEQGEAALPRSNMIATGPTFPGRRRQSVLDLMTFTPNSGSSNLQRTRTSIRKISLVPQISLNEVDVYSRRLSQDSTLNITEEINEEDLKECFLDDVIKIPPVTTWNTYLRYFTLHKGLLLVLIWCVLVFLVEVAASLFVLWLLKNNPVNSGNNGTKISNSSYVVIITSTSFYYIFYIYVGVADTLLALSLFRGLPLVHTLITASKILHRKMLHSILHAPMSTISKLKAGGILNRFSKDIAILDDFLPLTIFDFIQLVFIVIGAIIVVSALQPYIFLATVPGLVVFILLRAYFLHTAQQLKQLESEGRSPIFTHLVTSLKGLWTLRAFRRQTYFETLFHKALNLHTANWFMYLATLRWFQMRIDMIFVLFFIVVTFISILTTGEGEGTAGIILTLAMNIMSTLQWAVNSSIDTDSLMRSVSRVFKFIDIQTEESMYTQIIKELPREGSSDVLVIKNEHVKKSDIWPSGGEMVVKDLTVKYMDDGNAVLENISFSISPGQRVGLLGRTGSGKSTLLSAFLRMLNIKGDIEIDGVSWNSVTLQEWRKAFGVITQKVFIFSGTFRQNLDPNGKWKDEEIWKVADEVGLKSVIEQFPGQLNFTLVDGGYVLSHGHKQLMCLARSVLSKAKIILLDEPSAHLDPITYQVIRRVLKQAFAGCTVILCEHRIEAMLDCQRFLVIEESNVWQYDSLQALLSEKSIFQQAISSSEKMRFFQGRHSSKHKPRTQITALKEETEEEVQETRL", "test": "Whole-cell patch-clamp Cl- currents in Sertoli cells", "type": "cell-based", "set-up": "endogenous in cells; host or cells: Sertoli 42GPA9 cell line (mouse)", "description": "Whole cell currents were monitored from Sertoli cells, CFTR^-/- and WT renal epithelial cells with an RK 400 amplifier (Biologic, Münster, Germany) as previously described (40). The bath (extracellular) solution consisted of 140 mM NMDGCl (N-methyl-D-glucamine chloride), 5 mM D-Glucose, 1 mM CaCl2, and 10 mM HEPES, pH 7.4. Patch pipette (intracellular) solution contained 140 mM NMDGCl, 5 mM D-Glucose, 5 mM EGTA, 5 mM MgATP, and 10 mM HEPES, pH 7.4. Osmolarity of both solutions was adjusted to 280 mOSM by adding mannitol. These solutions were designed to study Cl^- currents because Cl^- is the sole permeant ion in these conditions and to prevent Ca^2+ activated Cl^- currents by the addition of EGTA in the patch solution. After establishment of whole cell configuration, cells were stimulated by the addition of Lindane (50 µM), FSK (10 µM), vehicle (Me2S0 or ethanol) in the absence or the presence of NPPB (0.1mM), DIDS (4,4'-diisothiocyanatostilbene-2,2'-disulfonic acid, 1 mM, Sigma), glibenclamide (0.1mM, Sigma) or PD98059 (10 µM) in the bath solution. The cell membrane potential was clamped at -50mV and 400 ms pulses were applied from -100 to +120 mV with increments of 20 mV every 2 s. To generate whole cell current-voltage (I-V) relationship, membrane currents resulting from voltage stimuli were recorded for at least 3 min and analysed using an IBM-AT-compatible computer equipped with Digidata 1200 interface (Axon Instruments) and pCLAMP software (versions 5.51 and 6.0, Axon Instruments), respectively. Statistics-Results are expressed as mean ± S.E. of n observations using the Student's t test."}, "p38": {"tested_on": "p38", "test": "p38 / Jun kinase activation by Western blotting of Sertoli cell lysates", "type": "cell-based, mouse", "conditions": "Sertoli cell lysates treated for 15 min", "excerpt": "as §3"}}}
{"molecule": "Cn1cnc(N)c2ncnc1-2", "note": "[3 MA, 3-Methyladenine]", "values": [{"measurement": "effect on Lindane-induced vacuolation", "setting": "Sertoli 42GPA9 cells; 24 h, PD98059 10 µM", "value": "dramatically reduced"}, {"measurement": "effect on starvation-induced death of CFTR^-/- cells", "setting": "CFTR^-/- cells", "value": "arrested starvation-induced cell death"}]}
{"molecule": "CO/C1=C\\C(C)=C\\[C@@H](C)[C@@H](O)[C@@H](C)C/C(C)=C/C=C/[C@H](OC)[C@@H]([C@@H](C)[C@@H](O)[C@H](C)[C@@]2(O)C[C@@H](O)[C@H](C)[C@@H](C(C)C)O2)OC1=O", "note": "[BafA1, bafilomycin A1]", "values": [{"measurement": "effect on Lindane-preformed vacuoles", "setting": "Sertoli 42GPA9 cells", "value": "collapsed Lindane-preformed vacuoles"}, {"measurement": "effect on Lindane-induced vacuolation", "setting": "Sertoli 42GPA9 cells; 24 h, PD98059 10 µM", "value": "prevented their formation"}]}
{"molecule": "Clc1ccc(C(c2ccc(Cl)cc2)C(Cl)(Cl)Cl)cc1", "note": "[DDT]", "values": [{"measurement": "induction of vacuolation / autophagy by the chemical alone", "setting": "Sertoli 42GPA9 cells; 24 h", "value": "induced vacuolation"}, {"measurement": "ERK activation in Sertoli cells", "setting": "p42^ERK2 and p44^ERK1", "value": "induced the activation of both p42^ERK2 and p44^ERK1"}, {"measurement": "Sertoli cell vacuolation in vivo", "setting": "Sertoli cell", "value": "reported to promote Sertoli cell vacuolation"}]}
{"molecule": "O=S(=O)(NCCNCC=Cc1ccc(Br)cc1)c1cccc2cnccc12", "note": "[H89]", "values": [{"measurement": "effect on Lindane-induced CREB phosphorylation", "setting": "PKA", "value": "failed to counteract Lindane-induced CREB phosphorylation"}]}
{"molecule": "Cl.N", "note": "[NH4Cl]", "values": [{"measurement": "induction of vacuolation / autophagy by the chemical alone", "setting": "Sertoli 42GPA9 cells; 24 h", "value": "did not alter cell morphology"}, {"measurement": "effect on toxicant-induced vacuole development", "setting": "Sertoli 42GPA9 cells; NH4Cl 5 mM added to medium", "value": "accelerated toxicant-induced vacuole development"}]}
{"molecule": "O=C(O)c1cc([N+](=O)[O-])ccc1NCCCc1ccccc1", "note": "[NPPB, 5-nitro-2-(3-phenylpropylamino) benzoic acid]", "values": [{"measurement": "sensitivity of CFTR Cl^- channels to blocker", "setting": "CFTR Cl^- channels", "value": "sensitive"}, {"measurement": "effect on Lindane-preformed vacuoles", "setting": "Sertoli 42GPA9 cells", "value": "collapsed Lindane-preformed vacuoles"}, {"measurement": "effect on Lindane-induced vacuolation", "setting": "Sertoli 42GPA9 cells; 24 h, PD98059 10 µM", "value": "abrogated Lindane-induced vacuolation"}, {"measurement": "outcome of CFTR^+/+ cells under nutrient deprivation in the presence of inhibitor", "setting": "CFTR^+/+ cells", "value": "cell death"}, {"measurement": "effect on Lindane-induced ERK activation", "setting": "p42^ERK2 and p44^ERK1", "value": "still stimulated"}]}
{"molecule": "COc1cccc(-c2cc(=O)c3ccccc3o2)c1N", "note": "[PD98059]", "values": [{"measurement": "ultrastructure in the presence of inhibitor plus Lindane", "setting": "Sertoli 42GPA9 cells; PD98059 10 µM + Lindane, electron microscopy", "value": "dramatic accumulation of lamellar structures"}, {"measurement": "effect on chloroquine-induced vacuolation", "setting": "Sertoli 42GPA9 cells; chloroquine 500 µM, 24 h, PD98059 10 µM", "value": "did not affect chloroquine-induced vacuolation"}, {"measurement": "effect on Lindane-induced vacuolation", "setting": "Sertoli 42GPA9 cells; 24 h, PD98059 10 µM", "value": "abrogated Lindane-induced vacuolation"}, {"measurement": "outcome of CFTR^+/+ cells under nutrient deprivation in the presence of inhibitor", "setting": "CFTR^+/+ cells", "value": "cell death"}, {"measurement": "effect on Lindane-induced ERK activation", "setting": "p42^ERK2 and p44^ERK1", "value": "drastically reduced the ability of Lindane to activate ERK"}, {"measurement": "effect on Lindane-induced CFTR Cl- conductance", "setting": "CFTR Cl^- channel; PD98059 10 µM + Lindane", "value": "dramatically reduced"}, {"measurement": "whole-cell I-V relationship with inhibitor alone", "setting": "CFTR Cl^- channel; PD98059 alone", "value": "identical to control I-V"}]}
{"molecule": "Oc1c(Cl)c(Cl)c(Cl)c(Cl)c1Cl", "note": "[Pentachlorophenol]", "values": [{"measurement": "induction of vacuolation / autophagy by the chemical alone", "setting": "Sertoli 42GPA9 cells; 24 h", "value": "no vacuolation was observed"}, {"measurement": "ERK activation in Sertoli cells", "setting": "p42^ERK2 and p44^ERK1", "value": "strong activator of ERK1/2"}, {"measurement": "p38 activation", "setting": "p38", "value": "concomitantly activated p38"}, {"measurement": "Sertoli cell vacuolation in vivo", "setting": "Sertoli cell", "value": "does not"}]}
{"molecule": "COc1ccc(Cl)cc1C(=O)NCCc1ccc(S(=O)(=O)NC(=O)NC2CCCCC2)cc1", "note": "[glibenclamide]", "values": [{"measurement": "sensitivity of CFTR Cl^- channels to blocker", "setting": "CFTR Cl^- channels", "value": "sensitive"}]}
{"molecule": "biphenol A", "values": [{"measurement": "induction of vacuolation / autophagy by the chemical alone", "setting": "Sertoli 42GPA9 cells; 24 h", "value": "induced vacuolation"}, {"measurement": "ERK activation in Sertoli cells", "setting": "p42^ERK2 and p44^ERK1", "value": "induced the activation of both p42^ERK2 and p44^ERK1"}]}
